SMILES strings stand for the structures. Read-outs that look alike come from different tables or passages of the source.

Format in all cases: cell-based
Assay [1] concerns TOV-112D. The experiment in a line: Cell proliferation assay. To be noted: Homo sapiens, TOV112D, Table 7b, TOV-112D, read-out: Cell Proliferation Assay (EC50). As for the experimental part:
(§1) Measurement of the inhibitive effect of compounds on cancer cell proliferation was performed. The assays were performed under the following conditions: Cells are harvested at a concentration of 4×10^4 cells/ml in media. Volumes of 100 μL/well of these cell suspensions were added to a 96 well plate using a multichannel pipette. Plates were gently agitated to ensure an even dispersion of cells over a given plate. Cells were then incubated at 37° C., 5% CO2 overnight. Following this, 100 μL of compound at varying concentrations was added to wells in triplicate. Control wells are those with 100 μL media containing 0.33% DMSO added to cell suspension (this is the equivalent volume of DMSO found in the highest concentration of drug). Plates were then gently agitated, as above, and incubated at 37° C., 5% CO2 for 72 hrs (control wells have reached 80-90% confluency). Assessment of cell proliferation in the presence of Compounds C and F was determined by the acid phosphatase assay.
(§2) Following the incubation period of 72 hrs, media was removed from the plates. Each well on the plate was washed twice with 100 μL PBS. This was then removed and 100 μL of freshly prepared phosphatase substrate (10 mM p-nitrophenol phosphate in 0.1M sodium acetate, 0.1% triton X-100, pH 5.5) was added to each well. The plates were then incubated in the dark at 37° C. for 2 hours. Color development was monitored during this time. The enzymatic reaction was stopped by the addition of 50 μL of 1N NaOH. The plate was read in a dual beam plate reader at 405 nm with a reference wavelength of 620 nm. The absorbance reading of the latter is subtracted from the former, and the effect of the drug on cell proliferation was then measured as a percentage against the control cells (DMSO), which is taken as 0% inhibition.

The test system of assay [2] is HCT 116. As to the kind of experiment: Cell proliferation assay. To be noted: Homo sapiens, Table 7b, HCT-116, read-out: Cell Proliferation Assay (EC50). As for the experimental part:
as §1, §2

Assay [3] deals with cyclin D1. The experiment in a line: Western blot of Cyclin D1, Example 6B. Conditions: 250 nM, 24 h, compared to control (DMSO). On the procedure:
Cells were plated at a density of 3×10^5 cells/well for 24 hrs. Representative compounds or DMSO alone was then added to the wells for 24 h at 250 nM (note: Compound F was administered at a concentration of 2 μM). Cells were trypsinised, pelleted, washed ×3 in PBS, and lysed using a 2% SDS lysis solution (Sigma—05030).
Western blot analysis was then carried out to look at Cyclin D1 (Abeam—ab134175), PRK8 (Sigma—P6248), Rb (Abeam—[…]) and GAPDH (Sigma—G9545) levels.

Regarding `Cc1ccccc1C(=O)Nc1nc(NC(=O)c2ccc(CN)cc2)nn1-c1ccc(OC(F)(F)F)cc1` [Compound 1x, N-(3-(4-(aminomethyl)benzamido)-1-(4-(trifluoromethoxy)phenyl)-1H-1,2,4-triazol-5-yl)-2-methylbenzamide], the EC50 in assay [1] (cells printed in nM) was found to be 350 nM; in assay [2] (cells printed in nM) it was 972 nM.

Regarding `Cc1ccccc1C(=O)Nc1nc(NC(=O)c2ccc(CN)cc2)n(-c2ccc(OC(F)(F)F)cc2)n1` [Compound 2x], the EC50 in assay [1] (cells printed in μM) came to 4000 nM; in assay [2] (cells printed in μM), 3000 nM.

On to `CCCCCCC(=O)NCc1ccc(C(=O)Nc2nc(-c3ncccc3C)nn2-c2ccc(OC(F)(F)F)cc2)cc1` [Compound 3x, 4-(heptanamidomethyl)-N-(3-(3-methylpyridin-2-yl)-1-(4-(trifluoromethoxy)phenyl)-1H-1,2,4-triazol-5-yl)benzamide], for which the EC50 in assay [1] (cells printed in nM) turned out to be 349 nM; in assay [2] (cells printed in nM), 484 nM.

Turning to `CCCCCCC(=O)NCc1ccc(C(=O)Nc2nc(-c3ncccc3C)nn2-c2cccc(F)c2)cc1` [Compound 4x, N-(1-(3-fluorophenyl)-3-(3-methylpyridin-2-yl)-1H-1,2,4-triazol-5-yl)-4-(heptanamidomethyl)benzamide], the EC50 in assay [1] (cells printed in nM) was determined as 227 nM; in assay [2] (cells printed in nM) it was 295 nM.

In the case of `Cc1cccnc1-c1nc(NC(=O)c2ccc(CN)cc2)n(-c2ccc(OC(F)(F)F)cc2)n1` [Compound 5x, 4-(aminomethyl)-N-(3-(3-methylpyridin-2-yl)-1-(4-(trifluoromethoxy)phenyl)-1H-1,2,4-triazol-5-yl)benzamide], the “Cyclin D1 expression” value in assay [3] (HCT-116) and in assay [3] (TOV-112) was “reduction of Cyclin D1 expression” in each case. Besides, the EC50 is 114 nM in assay [1] (cells printed in nM) and 133 nM in assay [2] (cells printed in nM).

Consider `Cc1cccnc1-c1nc(NC(=O)c2ccc(CN)cc2)n(-c2cccc(F)c2)n1` [Compound 6x, 4-(aminomethyl)-N-(1-(3-fluorophenyl)-3-(3-methylpyridin-2-yl)-1H-1,2,4-triazol-5-yl)benzamide], for which the “Cyclin D1 expression” value in assay [3] (HCT-116) and in assay [3] (TOV-112) was “reduction of Cyclin D1 expression” in each case. Further, the EC50 in assay [1] (cells printed in μM) and in assay [2] (cells printed in μM) was 2000 nM in each case.

For the molecule `Cc1ccccc1C(=O)Nc1nc(-c2ccccc2O)nn1-c1ccc(N2CCNCC2)cc1` [Compound 7x, N-(3-(2-hydroxyphenyl)-1-(4-(piperazin-1-yl)phenyl)-1H-1,2,4-triazol-5-yl)-2-methylbenzamide], the “Cyclin D1 expression” value in assay [3] (HCT-116) and in assay [3] (TOV-112) was “reduction of Cyclin D1 expression” throughout. The EC50 in assay [1] (cells printed in nM) came to 285 nM; in assay [2] (cells printed in nM), 406 nM.

As for `CCCCCCC(=O)N1CCN(c2ccc(-n3nc(-c4ccccc4O)nc3NC(=O)c3ccccc3C)cc2)CC1` [Compound 8x, N-(1-(4-(4-heptanoylpiperazin-1-yl)phenyl)-3-(2-hydroxyphenyl)-1H-1,2,4-triazol-5-yl)-2-methylbenzamide], the EC50 in assay [1] (cells printed in nM) was 124 nM; in assay [2] (cells printed in nM), 246 nM.

Consider `CCCCCCC(=O)NCc1ccc(C(=O)Nc2nc(-c3ccccc3O)nn2-c2ccc(OC(F)(F)F)cc2)cc1` [Compound 9x, 4-(heptanamidomethyl)-N-(3-(2-hydroxyphenyl)-1-(4-(trifluoromethoxy)phenyl)-1H-1,2,4-triazol-5-yl)benzamide], for which the EC50 came out at 82 nM in assay [1] (cells printed in nM) and 121 nM in assay [2] (cells printed in nM).

In the case of `NCc1ccc(C(=O)Nc2nc(-c3ccccc3O)nn2-c2ccc(OC(F)(F)F)cc2)cc1` [Compound 10x, 4-(aminomethyl)-N-(3-(2-hydroxyphenyl)-1-(4-(trifluoromethoxy)phenyl)-1H-1,2,4-triazol-5-yl)benzamide], the “Cyclin D1 expression” value in assay [3] (HCT-116) and in assay [3] (TOV-112) was “reduction of Cyclin D1 expression” each time. For the same molecule, the EC50 in assay [1] (cells printed in nM) came to 71 nM; in assay [2] (cells printed in nM), 108 nM.

As to `Cc1ccccc1C(=O)Nc1nc(NC(=O)c2cccc(CN3CCOCC3)c2)nn1-c1ccc(OC(F)(F)F)cc1` [Compound 11x, 2-methyl-N-(3-(3-(morpholinomethyl)benzamido)-1-(4-(trifluoromethoxy)phenyl)-1H-1,2,4-triazol-5-yl)benzamide], the “Cyclin D1 expression” value in assay [3] (HCT-116) and in assay [3] (TOV-112) was “reduction of Cyclin D1 expression” each time. The EC50 is 774 nM in assay [1] (cells printed in nM) and 929 nM in assay [2] (cells printed in nM).

Consider `Cc1ccccc1C(=O)Nc1nc(NC(=O)c2ccc(CNC(C)C)cc2)nn1-c1ccc(OC(F)(F)F)cc1` [Compound 12x, N-(3-(4-((isopropylamino)methyl)benzamido)-1-(4-(trifluoromethoxy)phenyl)-1H-1,2,4-triazol-5-yl)-2-methylbenzamide], for which the EC50 was 183 nM in assay [1] (cells printed in nM) and 755 nM in assay [2] (cells printed in nM).

In the case of `Cc1ccccc1C(=O)Nc1nc(NC(=O)c2cccc(CNC(C)C)c2)nn1-c1ccc(OC(F)(F)F)cc1` [Compound 13x, N-(3-(3-((isopropylamino)methyl)benzamido)-1-(4-(trifluoromethoxy)phenyl)-1H-1,2,4-triazol-5-yl)-2-methylbenzamide], the “Cyclin D1 expression” value in assay [3] (HCT-116) and in assay [3] (TOV-112) was “reduction of Cyclin D1 expression” in each case. The EC50 worked out at 231 nM in assay [1] (cells printed in nM) and 426 nM in assay [2] (cells printed in nM).

Regarding `Cc1ccccc1C(=O)Nc1nc(NC(=O)c2ccc(CN3CCN(C)CC3)cc2)nn1-c1ccc(OC(F)(F)F)cc1` [Compound 14x, 2-methyl-N-(3-(4-((4-methylpiperazin-1-yl)methyl)benzamido)-1-(4-(trifluoromethoxy)phenyl)-1H-1,2,4-triazol-5-yl)benzamide], the “Cyclin D1 expression” value in assay [3] (HCT-116) and in assay [3] (TOV-112) was “reduction of Cyclin D1 expression” throughout. In addition, the EC50 in assay [1] (cells printed in nM) worked out at 655 nM; in assay [2] (cells printed in nM), 412 nM.

As for `Cc1ccccc1C(=O)Nc1nc(NC(=O)c2cccc(CN3CCN(C)CC3)c2)nn1-c1ccc(OC(F)(F)F)cc1` [Compound 15x, 2-methyl-N-(3-(3-((4-methylpiperazin-1-yl)methyl)benzamido)-1-(4-(trifluoromethoxy)phenyl)-1H-1,2,4-triazol-5-yl)benzamide], the figures for the EC50 in assay [1] (cells printed in μM) and in assay [2] (cells printed in μM) were 3000 nM and 1000 nM, respectively.

For `Cc1ccccc1C(=O)Nc1nc(NC(=O)c2ccc(CNC(=O)[C@@H]3CCCN3)cc2)nn1-c1ccc(OC(F)(F)F)cc1` [Compound 16x, (S)—N-(4-((5-(2-methylbenzamido)-1-(4-(trifluoromethoxy)phenyl)-1H-1,2,4-triazol-3-yl)carbamoyl)benzyl)pyrrolidine-2-carboxamide], the EC50 in assay [1] (cells printed in nM) worked out at 659 nM; in assay [2] (cells printed in nM), 412 nM.

Source of the values: patent US20210244712A1, “METHODS FOR TREATING PATIENTS WITH CANCER HAVING DEFECTS IN CYCLIN D REGULATION” (NysnoBio Ireland DAC, priority 2018, published 2021).
